The results in this text go back to ChEMBL document CHEMBL3046084, “Synthesis and evaluation of p-N,N-dialkyl substituted chalcones as anti-cancer agents” (Med Chem Res, 2013).

One experiment has as its system MCF7. As to the kind of experiment: Anticancer activity against Homo sapiens (human) MCF7 cells assessed as inhibition of cell viability by SRB assay. The format is functional, cell-based.
In experiment [1] the target is Beta-secretase 1 (Homo sapiens) (UniProt P56817). The experiment in a line: Inhibition of Homo sapiens (human) recombinant BACE1 using FRET peptide Abz-YIWDEIDLMVLD-DNP as substrate at 50 uM preincubated with enzyme for 30 min prior to substrate addition measured by plate reader analysis.
Beta-secretase 1 (Homo sapiens), sequence (P56817 whole entry): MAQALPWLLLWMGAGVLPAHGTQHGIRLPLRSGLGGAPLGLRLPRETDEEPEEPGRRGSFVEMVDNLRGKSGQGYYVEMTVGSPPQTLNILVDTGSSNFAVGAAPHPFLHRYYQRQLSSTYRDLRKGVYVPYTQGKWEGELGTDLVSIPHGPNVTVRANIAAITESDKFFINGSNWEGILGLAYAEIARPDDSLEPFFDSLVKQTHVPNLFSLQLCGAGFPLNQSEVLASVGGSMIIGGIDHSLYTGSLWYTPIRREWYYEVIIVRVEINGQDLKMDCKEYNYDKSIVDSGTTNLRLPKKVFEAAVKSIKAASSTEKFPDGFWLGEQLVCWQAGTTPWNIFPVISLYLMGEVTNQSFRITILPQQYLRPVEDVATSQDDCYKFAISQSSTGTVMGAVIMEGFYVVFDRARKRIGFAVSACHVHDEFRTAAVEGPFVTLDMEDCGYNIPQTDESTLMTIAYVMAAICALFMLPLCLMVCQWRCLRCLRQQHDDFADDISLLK
Experiment [2] has as its system Mycolicibacterium smegmatis. The experiment in a line: Anti-mycobacterial activity against Mycobacterium smegmatis assessed as diameter of growth inhibition zone at 10 mM. The format is functional. Particulars: read-out: DIZ.

The source made the active and inactive calls. No cut-off for these calls is given here.

The term IC50 denotes the point on the concentration scale where inhibition reaches its midpoint. Take `O=C(/C=C/c1ccc(N2CCN(CCO)CC2)cc1)c1ccc(Cl)cc1`: the IC50 with MCF7 came to 50 µM.

Take `O=C(/C=C/c1ccc(N2CCN(CCO)CC2)cc1)c1ccc(Br)cc1`: the IC50 in the experiment on MCF7 was 50 µM. As to `COc1cc(C(=O)/C=C/c2ccc(N(Cc3ccccc3)Cc3ccccc3)cc2)cc(OC)c1OC`, in experiment [1], the inhibition result is “Active”. `O=C(/C=C/c1ccc(N(Cc2ccccc2)Cc2ccccc2)cc1)c1ccco1`: in experiment [2], the zone of inhibition at 10000 µM amounted to 15 mm.
